Source: the OligoGym collection
Values joined by “and” are separate entries in the source; they are usually repeats but may differ in a detail not shown here. Equal values may be shown once. HELM strings list units from the 5' end as sugar, base in round brackets, then linkage (d deoxyribose, r ribose, m 2'-O-methyl, p phosphodiester). Methylation of C is not given here. [moe] = 2'-O-(2-methoxyethyl) (MOE); [cEt] = constrained ethyl (cEt); [sp] = phosphorothioate linkage

Biological target: HBV
Conditions: ASO

| Substance | target mRNA inhibition (HepG2, 0.07 µM) | further results |
| --- | --- | --- |
| RNA1{[moe](A)[sp].[moe](A)[sp].d(C)[sp].d(T)[sp].d(G)[sp].d(G)[sp].d(A)[sp].d(G)[sp].d(C)[sp].d(C)[sp].d(A)[sp].[moe](C)[sp].[moe](C)[sp].[moe](A)[sp].[moe](G)[sp].[moe](C)[sp].[moe](A)}$$$$V2.0 | 68% and 53% | – |
| RNA1{[moe](A)[sp].[moe](A)[sp].d(T)[sp].d(T)[sp].d(T)[sp].d(A)[sp].d(T)[sp].d(G)[sp].d(C)[sp].d(C)[sp].d(T)[sp].[moe](A)[sp].[moe](C)[sp].[moe](A)[sp].[moe](G)[sp].[moe](C)}$$$$V2.0 | 27% and 19% | – |
| RNA1{[moe](A)[sp].[moe](C)[sp].[moe](C)[sp].d(A)[sp].d(C)[sp].d(T)[sp].d(G)[sp].d(A)[sp].d(A)[sp].d(C)[sp].d(A)[sp].d(A)[sp].d(A)[sp].[cEt](T)[sp].[cEt](G)[sp].[cEt](G)}$$$$V2.0 | 65% and 71% | – |
| RNA1{[moe](A)[sp].[moe](C)[sp].[moe](G)[sp].[moe](G)[sp].[moe](G)[sp].d(C)[sp].d(A)[sp].d(A)[sp].d(C)[sp].d(A)[sp].d(T)[sp].d(A)[sp].d(C)[sp].d(C)[sp].[moe](T)[sp].[moe](T)}$$$$V2.0 | 56% and 46% | – |
| RNA1{[moe](A)[sp].[moe](C)[sp].[moe](G)[sp].d(G)[sp].d(G)[sp].d(C)[sp].d(A)[sp].d(A)[sp].d(C)[sp].d(A)[sp].d(T)[sp].d(A)[sp].[moe](C)[sp].[moe](C)[sp].[moe](T)[sp].[moe](T)[sp].[moe](G)}$$$$V2.0 | 43% and 34% | – |
| RNA1{[moe](A)[sp].[moe](C)[sp].[moe](G)[sp].d(G)[sp].d(G)[sp].d(C)[sp].d(A)[sp].d(A)[sp].d(C)[sp].d(A)[sp].d(T)[sp].d(A)[sp].[moe](C)[sp].[moe](C)[sp].[moe](T)[sp].[moe](T)}$$$$V2.0 | 48% and 39% | – |
| RNA1{[moe](A)[sp].[moe](C)[sp].[moe](G)[sp].d(G)[sp].d(G)[sp].d(C)[sp].d(A)[sp].d(A)[sp].d(C)[sp].d(A)[sp].d(T)[sp].d(A)[sp].d(C)[sp].[cEt](C)[sp].[cEt](T)[sp].[cEt](T)}$$$$V2.0 | 43% and 40% | – |
| RNA1{[moe](A)[sp].[moe](C)[sp].[moe](T)[sp].[moe](A)[sp].[moe](G)[sp].[moe](T)[sp].d(A)[sp].d(A)[sp].d(A)[sp].d(C)[sp].d(T)[sp].d(G)[sp].d(A)[sp].d(G)[sp].d(C)[sp].[moe](C)[sp].[moe](A)}$$$$V2.0 | 84% and 75% | target mRNA inhibition (HepG2, 0.0092593 µM): 2%; target mRNA inhibition (HepG2, 0.0277778 µM): 15%; target mRNA inhibition (HepG2, 0.0833333 µM): 38%; target mRNA inhibition (HepG2, 0.25 µM): 75% |
| RNA1{[moe](A)[sp].[moe](C)[sp].[moe](T)[sp].[moe](G)[sp].d(G)[sp].d(A)[sp].d(G)[sp].d(C)[sp].d(C)[sp].d(A)[sp].d(C)[sp].d(C)[sp].d(A)[sp].[moe](G)[sp].[moe](C)[sp].[moe](A)[sp].[moe](G)}$$$$V2.0 | 40% and 41% | – |
| RNA1{[moe](A)[sp].[moe](C)[sp].[moe](T)[sp].d(A)[sp].d(G)[sp].d(T)[sp].d(A)[sp].d(A)[sp].d(A)[sp].d(C)[sp].d(T)[sp].d(G)[sp].[moe](A)[sp].[moe](G)[sp].[moe](C)[sp].[moe](C)[sp].[moe](A)}$$$$V2.0 | 66% and 67% | – |
| RNA1{[moe](A)[sp].[moe](C)[sp].[moe](T)[sp].d(G)[sp].d(G)[sp].d(A)[sp].d(G)[sp].d(C)[sp].d(C)[sp].d(A)[sp].d(C)[sp].d(C)[sp].[moe](A)[sp].[moe](G)[sp].[moe](C)[sp].[moe](A)}$$$$V2.0 | 53% and 72% | target mRNA inhibition (HepG2, 0.0092593 µM): 4%; target mRNA inhibition (HepG2, 0.0277778 µM): 23%; target mRNA inhibition (HepG2, 0.0833333 µM): 46%; target mRNA inhibition (HepG2, 0.25 µM): 56% |
| RNA1{[moe](A)[sp].[moe](C)[sp].d(C)[sp].d(A)[sp].d(C)[sp].d(T)[sp].d(G)[sp].d(A)[sp].d(A)[sp].d(C)[sp].d(A)[sp].[moe](A)[sp].[moe](A)[sp].[moe](T)[sp].[moe](G)[sp].[moe](G)}$$$$V2.0 | 43% and 44% | – |
| RNA1{[moe](A)[sp].[moe](C)[sp].d(G)[sp].d(T)[sp].d(G)[sp].d(C)[sp].d(A)[sp].d(G)[sp].d(A)[sp].d(G)[sp].d(G)[sp].[moe](T)[sp].[moe](G)[sp].[moe](A)[sp].[moe](A)[sp].[moe](G)}$$$$V2.0 | 57% and 44% | – |
